Measurements reported in patent US20250382306A1, “HETEROCYCLIC COMPOUND AS TAAR1 LIGAND AGONIST” (SHANDONG LUYE PHARMACEUTICAL CO., LTD., priority 2022, published 2025).
Read-outs that look alike come from different tables or passages of the source.

Legend:
TAAR1 = target: T1, TAAR1 (Homo sapiens, UniProt Q96RJ0); assay: In vitro TAAR1 functional activity (cAMP Hunter CHO-K1 TAAR1 Gs cell line, HitHunter cAMP assay); assay type: cell-based; settings: chemiluminescence cAMP readout
T1 construct: expressed in transfected cells; host or cells: CHO-K1 (cAMP Hunter TAAR1 Gs cell line)
T1 sequence (Q96RJ0 1-339): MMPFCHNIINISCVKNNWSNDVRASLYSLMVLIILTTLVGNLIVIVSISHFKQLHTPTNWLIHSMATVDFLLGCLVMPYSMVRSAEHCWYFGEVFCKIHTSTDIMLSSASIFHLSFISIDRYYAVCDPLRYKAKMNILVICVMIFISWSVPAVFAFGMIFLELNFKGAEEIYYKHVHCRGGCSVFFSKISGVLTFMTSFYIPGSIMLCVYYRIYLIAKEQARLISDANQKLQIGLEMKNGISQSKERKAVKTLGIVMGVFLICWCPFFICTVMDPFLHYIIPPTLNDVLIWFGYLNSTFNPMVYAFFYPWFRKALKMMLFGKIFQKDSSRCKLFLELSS
Experimental: Test Example 1. In Vitro Evaluation of Intrasynaptic and Extrasynaptic Functional Activities in Cells
Cell: CAMP Hunter™ CHO-K1 TAAR1 Gs Cell Line
Assay Reagent: HitHunter cAMP Assay Detection Kit
Experimental Instrument: PerkinElmer Envision™ Chemiluminescence Signal Detector
Experimental method: cell treatment: The cAMP Hunter cell strain was cultured at 37° C. with 5% CO2 to 70-80% confluence. The cells were harvested, and the cell density was adjusted to 1.5×10^4 cells/mL. The cells were seeded in a white-wall 384-well microwell plate at a volume of 20 μL, and incubated at 37° C. with 5% CO2 overnight. The cell medium was discarded, and 15 μL of 2:1 HBSS/10 mM Hepes:cAMP XS+Ab reagent was added to each well. The mother solution of the sample was diluted with an assay buffer in a concentration gradient to a 4× sample, and 5 μL of the 4× sample was added to each well. The plate was incubated at 37° C. or room temperature for 30 or 60 min. […] 20 μL of cAMP XS+EA reagent was added to each well, and the plate was incubated at room temperature for 3 h. The chemiluminescence signal was read using a PerkinElmer Envision™ detector.
Data analysis: EC50 was calculated using CBIS data analysis software (ChemInnovation, CA). The activity percentage was calculated using the following formula: % activity=100%×(test sample average RLU−solvent control average RLU)/(maximum control average RLU−solvent control average RLU).

[1] = Pharmacokinetic study in dogs; settings: dog, in vivo, po; Beagle dogs, plasma, after intragastric L15 hydrochloride 2 mg/kg (as free base); label = analyte
Experimental: Test Example 3. Pharmacokinetic Study in Dogs
Dog: Beagle dogs weighing 11-13 kg
(§1) Reagent: acetonitrile, MERCK; methanol, MERCK; formic acid, Sigma; tolbutamide, Sigma.
Instrument: water purification equipment, Millipore; electronic balance, METTLER TOLEDO; high-speed benchtop centrifuge, Thermo; water bath thermostatic oscillator, Shanghai Yiheng Technical Co., Ltd.; vortex oscillator, Thermo; liquid chromatography-mass spectrometry, AB SCIEX.
Method: L15 hydrochloride was administered intragastrically at a dose of 2 mg/kg (calculated based on free base), 2 Beagle dogs in each group. The vehicles were DMSO and Tween 80. Whole blood samples were separately collected at 0, 5 min, 15 min, 30 min, 1 h, 2 h, 3 h, 4 h, 6 h, 8 h, 12 h, and 24 h. The whole blood was placed in a heparinized EP tube and centrifuged at 13,500 rpm for 10 min to separate the plasma. After pretreatment, the plasma was analyzed by LC-MS/MS to determine the concentration of the test compound in the plasma.

[2] = system: MK801-induced overactivity; assay: Pharmacodynamic study in mice, MK-801 overactivity model (Test Example 4); assay type: in vivo; settings: C57 mice
Experimental: Test Example 4. Pharmacodynamic Study in Mice
Mouse: C57 mice weighing 20-22 g
Instrument: electronic balance, METTLER TOLEDO; TopScan monitoring system.
(§2) 4.1. model preparation: MK-801 induces overactivity in mice and is commonly used for preclinical evaluation of antipsychotics. The modeling method in this test was: The mice were injected with MK-801 intraperitoneally in at single dose of 0.8 mg/kg.
4.2. Experimental grouping: The mice were randomly divided into model group, 1-b group, and L27 group, 10 animals in each group, as shown in Table 5.
(§3) The mice were randomly divided into groups. At the start of the test, the test samples were administered intragastrically at an single dose according to the doses shown in Table 5, and the mice were placed in an activity chamber. After 30 min, each mouse was injected intraperitoneally with 0.8 mg/kg of MK-801 for modeling, and placed in the activity chamber again. The movement distance (mm) of the mice after modeling (i.e., within 30-60 min after administration) was recorded and analyzed using a TopScan monitoring system.
(§4) […] The total movement distance of the mice after modeling (30-60 min after administration) was recorded.
(§5) Data analysis and processing were carried out using Graphpad 5.0 software. ANOVA test was used to compare the total movement distance between each administration group and model group within 30-60 min.

[3] = Pharmacokinetic study in rats; assay type: in vivo, SD rats; settings: for Cmax: read-out: Cmax or C0
Experimental: Test Example 2. Pharmacokinetic Study in Rats
Rat: SD Rats Weighing 200-250 g
as §1
Instrument: water purification equipment, Millipore; electronic balance, METTLER TOLEDO; high-speed benchtop centrifuge, Thermno; water bath thermostatic oscillator, Shanghai Yiheng Technical Co., Ltd.; vortex oscillator, Thermno; liquid chromatography-mass spectrometry, AB SCIEX.
Method: The SD rats were dosed intravenously (IV) and intragastrically (IG), 3 SD rats in each group. Compounds 1-b, 2-a and L27 were separately administered, and the vehicles were DMSO and Tween 80. […] Whole blood samples were separately collected at 0, 5 m (intravenous), 15 m, 30 mi, 1 h, 2 h, 4 h, 6 h, 8 h, 12 h, and 24 h. The whole blood was placed in a heparinized EP tube and centrifuged at 13,500 rpm for 10 min to separate the plasma. After pretreatment, the plasma was analyzed by LC-MS/MS to determine the concentration of the test compound in the plasma.

[4] = system: MK801-induced overactivity; assay: Pharmacodynamic study in mice, MK-801 overactivity model (Test Example 5); assay type: in vivo, C57 mice; settings: 3 mg/kg intragastric; for total movement distance after modeling: MK-801 0.8 mg/kg i.p., 30-60 min after administration, p<0.05 vs model group 101535.71±26076.11 mm
Experimental: as §2, §3, §4, §5
Test Example 5. Pharmacodynamic Study in Mice
5.1. Experimental grouping: The mice were randomly divided into model group, 1-b group, and 2-a group, 5 animals in each group, as shown in Table 6. The model preparation, test method, observation of indexes and statistical method were the same as those in Test Example 4.

[5] = cAMP Hunter CHO-K1 TAAR1 Gs cell line, read-out: EC50
[6] = SD rats, 1-b IV 2 mg/kg, analyte 1-b
[7] = Sprague-Dawley, rat, in vivo, po, SD rats, plasma, 1-b IG 5 mg/kg, analyte 1-b
[8] = Sprague-Dawley, rat, in vivo, SD rats, plasma, 1-b IV 2 mg/kg, analyte 1-b
[9] = EC50, cAMP Hunter CHO-K1 TAAR1 Gs cell line

With `COc1ccsc1C1CNCCO1` (single isomer, unassigned) [Compound 10-a] the EC50 (TAAR1; [5]) was 28 nM.

Work on `COc1ccsc1C1CNCCO1` (single isomer, unassigned) [Compound 10-b] yielded an EC50 (TAAR1; [5]) of 386 nM.

With `CNCC1OC(C)Cc2ccsc21` (single isomer, unassigned) [Compound 28-a] the EC50 (TAAR1; [5]) was over 10000 nM.

Work on `CNCC1OC(C)Cc2ccsc21` (single isomer, unassigned) [Compound 28-b] yielded an EC50 (TAAR1; [5]) of 1840 nM.

With `CNCC1OCC(c2ccccc2)c2ccsc21` (single isomer, unassigned) [Compound 32-a] the EC50 (TAAR1; [5]) was over 10000 nM.

Work on `CNCC1OCC(c2ccccc2)c2ccsc21` (single isomer, unassigned) [Compound 32-b] yielded an EC50 (TAAR1; [5]) of over 10000 nM.

In the case of `CNCC1OCC(c2ccccc2)c2ccsc21` (single isomer, unassigned) [Compound 32-c], the EC50 (TAAR1; [5]) is reported as over 10000 nM.

`CNCC1OCC(c2ccccc2)c2ccsc21` (single isomer, unassigned) [Compound 32-d] gave an EC50 (TAAR1; [5]) of over 10000 nM.

In the case of `CN1CCc2ccsc2C1CN` (single isomer, unassigned) [Compound 42-a], the EC50 (TAAR1; [5]) is reported as over 10000 nM.

`CN1CCc2ccsc2C1CN` (single isomer, unassigned) [Compound 42-b] showed an EC50 (TAAR1; [5]) of 244 nM.

With `NCC1SCCc2ccsc21` (single isomer, unassigned) [Compound 43-a] the EC50 (TAAR1; [5]) was over 10000 nM.

With `NCC1SCCc2ccsc21` (single isomer, unassigned) [Compound 43-b] the EC50 (TAAR1; [5]) was 31 nM.

Compound `c1cc2c(s1)[C@H]1CNCCN1CC2` [Compound 1-a] has an EC50 (TAAR1; [5]) of 9120 nM.

Compound `c1cc2c(s1)[C@@H]1CNCCN1CC2` [Compound 1-b] has an AUC(0-t) [1] of 0.0547 µM·h, a Cmax [1] of 0.0223 µM and an MRT last [1] of 1.68 h. For the same compound, the Tmax [1] was 1.5 h, the EC50 (TAAR1; [5]) was 62 nM and the “effect on MK801-induced overactivity (conclusion)” value (“effect” for short) ([2]; 10 mg/kg intragastric) was “good inhibition effect”. The “total movement distance after modeling” value ([2]; 1-b 10 mg/kg intragastric, MK-801 0.8 mg/kg i.p., 30-60 min after administration, p<0.05 vs model group 63052.14±21618.80 mm) was 6493.12±6228.87 mm, the F ([3]; SD rats, 1-b IG 5 mg/kg vs IV 2 mg/kg) was 66.6 ± 8.12% and the Cl_obs [3, 6] was 28.8 ± 3.25 mL/min/kg. The Vss_obs [3, 6] was 2.91 ± 0.68 L/kg, the AUC(0-t) [3, 7] was 9.95 ± 1.21 µM·h and the MRT last [3, 7] was 2.33 ± 0.465 h. For the same compound, the Tmax [3, 7] was 0.417 ± 0.144 h, the half-life [3, 7] was 1.85 ± 0.217 h and the Cmax [3, 7] was 3.73 ± 0.846 µM. It also gave an AUC(0-t) [3, 8] of 5.97 ± 0.642 µM·h, an MRT last [3, 8] of 1.6 ± 0.203 h and a half-life [3, 8] of 1.76 ± 0.344 h. For the same compound, the Cmax [3, 8] was 7.54 ± 2.28 µM, the “effect” value [4] was “good inhibition effect” and the “total movement distance after modeling” value [4] was 13644.54±10814.85 mm.

With `CN1CCN2CCc3ccsc3[C@@H]2C1` [Compound 2-a] the EC50 (TAAR1; [5]) was 4400 nM, the “Exposure and bioavailability (conclusion)” value ([3]; rat, in vivo) was “relatively high exposure and bioavailability” and the “effect” value [4] was “good inhibition effect”. For the same compound, the “total movement distance after modeling” value [4] was 9161.61±4711.10 mm.

`CN1CCN2CCc3ccsc3[C@H]2C1` [Compound 2-b] gave an EC50 (TAAR1; [5]) of over 10000 nM.

`Fc1csc(C2CNCCO2)c1` (stereo not shown) [Compound 8] gave an EC50 (TAAR1; [9]) of 295 nM.

`Fc1ccc(C2CNCCO2)s1` (stereo not shown) [Compound 9] showed an EC50 (TAAR1; [5]) of 734 nM.

`COc1csc([C@@H]2CNCCO2)c1` [Compound 11-a] gave an EC50 (TAAR1; [9]) of over 10000 nM.

For `COc1csc([C@H]2CNCCO2)c1` [Compound 11-b], the EC50 (TAAR1; [9]) was 2160 nM.
